The values that follow come from article PMC7764991, “Chronic Plasma Exposure to Kinase Inhibitors in Patients with Oncogene-Addicted Non-Small Cell Lung Cancer” (Cancers, 2020).

The conditions of data set [1]: cited from earlier work.
The conditions of data set [2]: Table S2; ref supplementary refs 9-18, per drug; cited from earlier work.
The nature of data set [3]: Residual plasma concentration of kinase inhibitors by UPLC-MS/MS in NSCLC patients, classed optimal or suboptimal. Here is the method: Patients with advanced NSCLC harboring oncogenic drivers, such as an EGFR-mutation, BRAF^V600E-mutation, ALK-fusion, or ROS1-fusion, treated with KI therapy for at least three months were eligible. […] KI plasma concentrations were evaluated in blood samples collected during therapy, and at the time of clinical response or relapse. Chronic plasma exposure was defined as at least three months of KI therapy. Clinical and pathological data were extracted from electronic medical records. Radiological assessments were performed every 8 or 12 weeks per Response Evaluation Criteria in Solid Tumors (RECIST) v1.1 and per the treating physician’s discretion.
Residual plasma concentrations of drugs were measured in blood samples using ultra-performance liquid chromatography coupled with tandem mass spectrometry validated methods. A residual estimate based on pharmacokinetic and population pharmacokinetic analysis parameters (Table S2) was made for samples not collected at the time of the residual sampling.
Precise measurement of trough concentrations is challenging in routine practice, due to the constraints of the logistics of blood collection at a precise time and the fact that the timing of administration varies from patient to patient. We defined three situations according to the dosing time with respect to the last dose: Optimal, evaluable, and non-interpretable.
• Optimal: The optimal concentration corresponds to the true residual plasma concentration at a steady state, in the blood collection performed immediately before the next administration. • Evaluable: The residual plasma concentration is estimated by an extrapolation method from known pharmacokinetic parameters (distribution volume, half-life, clearance) and from data obtained in population pharmacokinetic models. This estimate of standard trough concentration (Cmin, std) is only possible when blood samples were collected at steady state or during the terminal elimination phase of the drug, since in this phase, the elimination rate is linear. • - C (min, std) = C(t) * 0.5 ^ (Delta (t)/t1/2) • - C (min, std) = C(t) * exp (k(e) x Delta (t))
• 3. Not interpretable: Extrapolation is not feasible for samples taken during the plasma peak period.

For data set [4] the following is noted: cited from earlier work; for Proposed target for TDM, Cmin: Table S1, plasma trough level, ref supplementary refs 1-11, per drug; for Target value of residual plasma concentration defining 'optimal concentration': recommended for TDM.
The conditions of data set [5]: studies of KI concentrations for other cancers; cited from earlier work.
Details of data set [6]: method as in PMID 22038662. The following applies: hepatocellular carcinoma patients, plasma measured every 15 days; cited from earlier work.
Where [7] appears, read: samples after at least three months of KI, % of the optimal group (n = 25).
Setting [8] is: samples after at least three months of KI, % of the suboptimal group (n = 26).

For the compound `C[C@@H](Oc1cc(-c2cnn(C3CCNCC3)c2)cnc1N)c1c(Cl)ccc(F)c1Cl` [Crizotinib, crizotinib], the “Interaction with proton pump inhibitors” value in data set [1] is “not relevant”. In addition, in data set [2], the Bioavailability is listed as 43%, the Distribution volume is 1772 L, the Hepatic elimination is on record as 63% and the Metabolic pathway result is “CYP3A4”. For the same compound, the time to peak (Tmax) in data set [2] was 4 to 6 h. The “Samples with optimal concentration” value in data set [3] (setting [7]) is 2 (8%) No. (%). The “Samples with suboptimal concentration” value in data set [3] (setting [8]) is 5 (19.5%) No. (%). In data set [4], the “Proposed target for TDM, Cmin” value is at least 235 ng/mL and the “Target value of residual plasma concentration defining 'optimal concentration'” value was above 235 ng/mL.
As for `CC(C)(C)c1nc(-c2cccc(NS(=O)(=O)c3c(F)cccc3F)c2F)c(-c2ccnc(N)n2)s1` [Dabrafenib, dabrafenib], the “Interaction with proton pump inhibitors” value in data set [1] is listed as “not relevant”. For the same compound, in data set [2], the Distribution volume is 46 L; the Half-life is on record as 8 h; the Hepatic elimination was 73%; the Metabolic pathway entry is given as “CYP2C8, 3A4”. Besides, the “Samples with optimal concentration” value in data set [3] (setting [7]) is 2 (8%) No. (%). In addition, the “Samples with suboptimal concentration” value in data set [3] (setting [8]) is given as 3 (11.5%) No. (%). Further, in data set [4], the “Proposed target for TDM, Cmin” value was at least 96.1 ng/mL and the “Target value of residual plasma concentration defining 'optimal concentration'” value is recorded as above 96.1 ng/mL.
Take `C=CC(=O)Nc1cc(Nc2nccc(-c3cn(C)c4ccccc34)n2)c(OC)cc1N(C)CCN(C)C` [Osimertinib, osimertinib]: in data set [2], the Bioavailability is given as 70%, the Half-life was 44 h and the Tmax was 6 h. Also, in data set [3] (human, in vivo), the “Samples with optimal concentration” value is reported as 4 (16%) No. (%) and the “Samples with suboptimal concentration” value is listed as 6 (23%) No. (%). In data set [4], the “Proposed target for TDM, Cmin” value was at least 166 ng/mL and the “Target value of residual plasma concentration defining 'optimal concentration'” value is above 166 ng/mL.
For `C#Cc1cccc(Nc2ncnc3cc(OCCOC)c(OCCOC)cc23)c1` [Erlotinib, erlotinib], the “Effect of cigarette smoke on plasmatic exposure” value in data set [1] (cigarette smoke induces CYP1A1) is “significantly decreases”. For the same compound, the “Interaction with proton pump inhibitors” value in data set [1] is “decreasing their bioavailability and the plasmatic exposure”. In addition, in data set [2], the Bioavailability is 59%, the Distribution volume is recorded as 232 L, the Half-life is 36.2 h and the Hepatic elimination was 90%. In data set [3] (human, in vivo), the “Samples with optimal concentration” value is 7 (28%) No. (%) and the “Samples with suboptimal concentration” value is listed as 6 (23%) No. (%). Besides, the Suboptimal concentration rate in data set [5] is 11%. In data set [4], the “Proposed target for TDM, Cmin” value is at least 500 ng/mL and the “Target value of residual plasma concentration defining 'optimal concentration'” value was above 500 ng/mL.
`COc1cc2ncnc(Nc3ccc(F)c(Cl)c3)c2cc1OCCCN1CCOCC1` [Gefitinib, gefitinib]: in data set [2], the Bioavailability is listed as 59%, the Half-life is recorded as 41 h and the Tmax is 3 to 7 h. In data set [3] (human, in vivo), the “Samples with optimal concentration” value is on record as 8 (32%) No. (%) and the “Samples with suboptimal concentration” value is 3 (11.5%) No. (%). For the same compound, in data set [4], the “Proposed target for TDM, Cmin” value is at least 200 ng/mL and the “Target value of residual plasma concentration defining 'optimal concentration'” value was above 200 ng/mL.
On to `CCN(CC)CCNC(=O)c1c(C)[nH]c(/C=C2\C(=O)Nc3ccc(F)cc32)c1C` [sunitinib], for which the Suboptimal concentration rate in data set [5] was 49%.
Consider `CNC(=O)c1cc(Oc2ccc(NC(=O)Nc3ccc(Cl)c(C(F)(F)F)c3)cc2)ccn1` [sorafenib], for which, in data set [6], the “Exposure after three months of treatment compared with one month” value is “lower than after one month of treatment”.
For the compound `CC(=O)Nc1cccc(-n2c(=O)n(C3CC3)c(=O)c3c(Nc4ccc(I)cc4F)n(C)c(=O)c(C)c32)c1` [Trametinib, trametinib], the “Interaction with proton pump inhibitors” value in data set [1] is “not relevant”. In data set [2], the Half-life is 127 h, the Hepatic elimination is given as 80% and the Metabolic pathway entry is “Deacetylation”. In addition, in data set [3] (human, in vivo), the “Samples with optimal concentration” value was 2 (8%) No. (%) and the “Samples with suboptimal concentration” value is reported as 3 (11.5%) No. (%). Also, in data set [4], the “Proposed target for TDM, Cmin” value is at least 10.6 ng/mL and the “Target value of residual plasma concentration defining 'optimal concentration'” value is above 10.6 ng/mL.

The Tmax is the time from dosing to the highest level.
